In ChEMBL document CHEMBL4619803, “Stepwise Design of γ-Secretase Modulators with an Advanced Profile by Judicious Coordinated Structural Replacements and an Unconventional Phenyl Ring Bioisostere” (J Med Chem, 2020):
Values after ≈ are worked out from the molar mass of the structure shown.

Assays:
[1] = Dark toxicity in human Keratinocytes assessed as reduction in cell viability; format: cell-based, Keratinocyte
hERG (KCNH2) = hERG (KCNH2) (Homo sapiens, UniProt Q12809); experiment: (§1) Inhibition of human ERG; conditions: human
hERG (KCNH2), sequence (Q12809 whole entry): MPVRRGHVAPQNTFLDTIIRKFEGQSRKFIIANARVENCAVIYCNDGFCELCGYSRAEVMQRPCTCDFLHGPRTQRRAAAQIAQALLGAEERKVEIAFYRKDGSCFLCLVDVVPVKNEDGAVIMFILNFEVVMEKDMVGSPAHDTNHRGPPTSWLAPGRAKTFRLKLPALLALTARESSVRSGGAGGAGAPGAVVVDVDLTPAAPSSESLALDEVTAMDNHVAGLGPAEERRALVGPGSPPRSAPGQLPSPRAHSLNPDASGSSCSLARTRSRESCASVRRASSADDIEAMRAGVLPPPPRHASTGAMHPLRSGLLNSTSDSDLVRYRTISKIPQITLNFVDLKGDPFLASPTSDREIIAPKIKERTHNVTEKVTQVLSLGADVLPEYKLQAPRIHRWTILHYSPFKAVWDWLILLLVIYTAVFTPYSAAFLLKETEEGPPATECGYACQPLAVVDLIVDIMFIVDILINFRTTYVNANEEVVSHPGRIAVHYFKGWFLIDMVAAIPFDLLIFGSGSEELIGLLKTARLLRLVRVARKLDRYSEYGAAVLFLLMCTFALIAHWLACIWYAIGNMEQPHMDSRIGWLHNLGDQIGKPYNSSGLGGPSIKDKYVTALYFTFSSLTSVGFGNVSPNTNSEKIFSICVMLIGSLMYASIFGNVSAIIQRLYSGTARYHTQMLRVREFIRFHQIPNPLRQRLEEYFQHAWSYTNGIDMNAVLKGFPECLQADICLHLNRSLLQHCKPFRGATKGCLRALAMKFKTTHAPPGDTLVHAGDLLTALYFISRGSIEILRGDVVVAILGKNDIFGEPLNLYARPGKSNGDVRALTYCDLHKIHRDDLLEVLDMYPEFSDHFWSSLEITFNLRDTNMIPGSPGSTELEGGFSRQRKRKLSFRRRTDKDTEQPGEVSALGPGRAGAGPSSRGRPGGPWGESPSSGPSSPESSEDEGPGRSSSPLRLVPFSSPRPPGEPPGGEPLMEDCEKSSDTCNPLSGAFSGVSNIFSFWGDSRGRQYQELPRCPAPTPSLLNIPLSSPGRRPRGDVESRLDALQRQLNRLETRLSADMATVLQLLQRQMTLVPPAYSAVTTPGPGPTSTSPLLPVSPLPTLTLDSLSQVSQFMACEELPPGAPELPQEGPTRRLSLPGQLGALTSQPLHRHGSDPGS

[2] = target: Voltage-gated inwardly rectifying potassium channel KCNH2 (Homo sapiens, UniProt Q12809); experiment: as §1
Voltage-gated inwardly rectifying potassium channel KCNH2, sequence (Q12809 whole entry): as above

[3] = Clearance in mouse hepatocytes assessed per million cells; format: ADME, cell-based, Hepatocyte; conditions: read-out: CLH
[4] = Clearance in human hepatocytes assessed per million cells; format: ADME, cell-based, Hepatocyte; conditions: read-out: CLH
[5] = Fraction unbound in human plasma; format: ADME, cell-free
Mus musculus [6] = experiment: In vivo modulation of gamma secretase in APP-Swedish transgenic mouse assessed as reduction in Abeta42 production by measuring remaining Abeta42 level at 0.3 mg/kg, po measured after 4 hrs by ELISA or AlphaLISA assay relative to control; format: functional
Mus musculus [7] = experiment: In vivo modulation of gamma secretase in APP-Swedish transgenic mouse assessed as reduction in Abeta42 production by measuring remaining Abeta42 level at 10 mg/kg, po measured after 4 hrs by ELISA or AlphaLISA assay relative to control; format: functional
[8] = Solubility of compound by lyophilisation solubility assay; format: physicochemical
[9] = Dark toxicity in human Melanocytes assessed as reduction in cell viability; format: cell-based, Melanocyte
Mus musculus [10] = experiment: In vivo modulation of gamma secretase in APP-Swedish transgenic mouse assessed as reduction in Abeta42 production by measuring remaining Abeta42 level at 1 mg/kg, po measured after 4 hrs by ELISA or AlphaLISA assay relative to control; format: functional
Keratinocyte = experiment: Phototoxicity in human Keratinocytes in presence of UVA at 320 to 400 nm; format: cell-based; conditions: light or radiation study
[11] = target: Phosphatidylinositol 4-kinase beta (Homo sapiens, UniProt Q9UBF8); experiment: Binding affinity to PIK4CB (unknown origin); format: ADME
Phosphatidylinositol 4-kinase beta, sequence (Q9UBF8 whole entry): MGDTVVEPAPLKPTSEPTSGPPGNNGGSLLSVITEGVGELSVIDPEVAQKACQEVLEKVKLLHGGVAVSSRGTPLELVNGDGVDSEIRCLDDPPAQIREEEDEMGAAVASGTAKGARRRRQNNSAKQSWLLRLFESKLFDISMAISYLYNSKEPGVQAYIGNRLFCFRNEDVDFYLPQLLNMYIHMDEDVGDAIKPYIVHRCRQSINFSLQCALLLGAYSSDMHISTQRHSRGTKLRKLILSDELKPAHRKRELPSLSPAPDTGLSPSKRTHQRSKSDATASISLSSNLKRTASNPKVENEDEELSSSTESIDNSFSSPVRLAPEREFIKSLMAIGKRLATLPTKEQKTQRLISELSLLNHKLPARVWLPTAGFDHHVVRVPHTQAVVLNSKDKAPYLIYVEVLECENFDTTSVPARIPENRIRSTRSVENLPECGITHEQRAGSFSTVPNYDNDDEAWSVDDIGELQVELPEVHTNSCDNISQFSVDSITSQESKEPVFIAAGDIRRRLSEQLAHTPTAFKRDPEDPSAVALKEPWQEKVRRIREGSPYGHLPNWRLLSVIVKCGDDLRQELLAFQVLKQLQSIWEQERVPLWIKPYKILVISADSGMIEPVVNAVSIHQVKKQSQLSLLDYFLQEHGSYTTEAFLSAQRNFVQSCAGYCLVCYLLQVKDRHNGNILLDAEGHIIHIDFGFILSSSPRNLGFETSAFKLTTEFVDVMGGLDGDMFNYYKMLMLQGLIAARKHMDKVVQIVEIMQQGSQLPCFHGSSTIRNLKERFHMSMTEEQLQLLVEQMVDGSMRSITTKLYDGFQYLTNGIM

[12] = Fraction unbound in 10% fetal calf serum; format: ADME, cell-free, Bos taurus; conditions: cattle
[13] = Ratio of IC50 for dark toxicity in human Keratinocytes to IC50 for phototoxicity in human Keratinocytes in presence of UVA at 320 to 400 nm; format: cell-based, Keratinocyte; conditions: read-out: Ratio IC50
Melanocyte = experiment: Phototoxicity in human Melanocytes in presence of UVA at 320 to 400 nm; format: cell-based; conditions: light or radiation study
[14] = Covalent protein binding in human liver microsomes assessed per mg protein in presence of NADPH; format: ADME, Microsome
Mus musculus [15] = experiment: In vivo modulation of gamma secretase in po dosed APP-Swedish transgenic mouse assessed as reduction in total Abeta42 production level in brain administered as single dose by ELISA or AlphaLISA assay; format: functional, organism-based; conditions: for IC50: Mus musculus
[16] = Ratio of IC50 for dark toxicity in human Melanocytes to IC50 for phototoxicity in human Melanocytes in presence of UVA at 320 to 400 nm; format: cell-based, Melanocyte; conditions: read-out: Ratio IC50
Mus musculus [17] = species: Mus musculus; experiment: (§2) Modulation of mouse gamma secretase assessed as reduction in Abeta42 production
[18] = as §2
Mus musculus [19] = experiment: In vivo modulation of gamma secretase in APP-Swedish transgenic mouse assessed as reduction in Abeta42 production by measuring remaining Abeta42 level at 3 mg/kg, po measured after 4 hrs by ELISA or AlphaLISA assay relative to control; format: functional
[20] = Fraction unbound in mouse plasma; format: ADME, cell-free
[21] = Octanol/water distribution co-efficient, log D of the compound at pH 7.4; format: physicochemical
[22] = target: Gamma-secretase (Homo sapiens) (UniProt Q96BI3+Q9NZ42+Q8WW43+P49768+Q92542+P49810); experiment: (§3) Modulation of gamma secretase in human H4 cells over expressing human APP695 harboring K595N/M596L Swedish double mutant assessed as reduction in Abeta42 production after 24 hrs by Alphalisa assay; format: cell-based
Gamma-secretase = experiment: as §3; format: cell-based
[23] = Solubility in fed state simulated intestinal fluids; format: physicochemical; conditions: simulated gi fluid
[24] = Clearance in rat at 1 mg/kg, iv bolus measured over 24 hrs; format: ADME, organism-based; conditions: in vivo
[25] = Cytotoxicity against human embryonic stem cells assessed as reduction in cell viability; format: cell-based
[26] = Fraction unbound in rat plasma; format: ADME, cell-free
[27] = Solubility of the compound in fasted state simulated intestinal fluid; format: physicochemical; conditions: simulated gi fluid
[28] = Terminal half life in minipig at 1 mg/kg, iv bolus measured over 240 hrs; format: ADME, organism-based, Sus scrofa domesticus; conditions: pig, in vivo, read-out: beta t1/2 (converted)
[29] = Terminal half life in rat at 1 mg/kg, iv bolus measured over 24 hrs; format: ADME, organism-based; conditions: in vivo, read-out: beta t1/2 (converted)
[30] = Clearance in rat hepatocytes assessed per million cell; format: ADME, cell-based, Hepatocyte; conditions: read-out: CLH
[31] = Dose normalized AUC (infinity) in minipig at 3 mg/kg, po via gavage measured over 240 hrs; format: ADME, organism-based, Sus scrofa domesticus; conditions: pig, in vivo
[32] = Oral bioavailability in rat at 2 mg/kg via gavage measured over 24 hrs; format: ADME, organism-based; conditions: in vivo
[33] = Oral bioavailability in minipig at 3 mg/kg via gavage measured over 240 hrs; format: ADME, organism-based, Sus scrofa domesticus; conditions: pig, in vivo
[34] = Dose normalized AUC (infinity) in rat at 2 mg/kg, po via gavage measured over 24 hrs; format: ADME, organism-based; conditions: in vivo
[35] = Clearance in minipig at 1 mg/kg, iv bolus measured over 240 hrs; format: ADME, organism-based, Sus scrofa domesticus; conditions: pig, in vivo
[36] = Thermodynamic solubility of the compound; format: physicochemical
[37] = Volume of distribution at steady state in minipig at 1 mg/kg, iv bolus measured over 240 hrs; format: ADME, organism-based, Sus scrofa domesticus; conditions: pig, in vivo, read-out: Vdss
[38] = Volume of distribution at steady state in rat at 1 mg/kg, iv bolus measured over 24 hrs; format: ADME, organism-based; conditions: in vivo, read-out: Vdss
[39] = Mutagenicity in Salmonella typhimurium by Ames test; format: toxicity; conditions: salmonella enterica subsp. enterica serovar typhimurium

| hepatocyte CLint [3] [µL/min/1e6 cells] | hepatocyte CLint [4] [µL/min/1e6 cells] | fraction unbound [5] | solubility [8] [µg/mL] | Kd [11] [nM] | IC50 (Mus musculus [15]) [nM] | fIC50 (Mus musculus [17]) [nM] | IC50 [18] [nM] | fraction unbound [20] | logD [21] | fIC50 [22] [nM] | IC50 (Gamma-secretase) [nM] | SMILES | IC20 (hERG (KCNH2)) [nM] | IC50 [2] [nM] | IC50 (Keratinocyte) [nM] | IC50 (Melanocyte) [nM] | other results |
| --- | --- | --- | --- | --- | --- | --- | --- | --- | --- | --- | --- | --- | --- | --- | --- | --- | --- |
| 5.4 | 6.6 | 0.004 | 3.8 to 3.86 (≈ 8.06 to 8.19 µM) | 120 | 160 | 0.9 | 4 | 0.003 | 4.1 to 4.14 | 1 | 4.5 | Cc1nsc(N2CC3CCC(C2)C3Nc2nc3c(-c4ccc(F)c(F)c4F)cccn3n2)n1 (stereo not given) | < 1000 | < 2000 | 1670 | 1670 | IC50 [1]: > 38000 nM; Activity (Mus musculus [6]): 75%; remaining Abeta42 level (% of control) (Mus musculus [7]): 22%; IC50 [9]: > 38000 nM; Activity (Mus musculus [10]): 56%; fraction unbound [12]: 0.22; selectivity ratio [13]: 22.9 to 23; PB [14]: 105 pmol; fIC50 (Mus musculus [15]): 0.5 nM; selectivity ratio [16]: 22.9 to 23; remaining Abeta42 level (% of control) (Mus musculus [19]): 27% |
| 3.4 | 1.1 | 0.05 | 82 (≈ 162 µM) | > 40000 | 40 | 14 | 21 | 0.043 | 3.8 to 3.85 | 19 | 30 | Cc1nnc(N2C[C@H]3CC[C@@H](C2)[C@@H]3Nc2nc3c(O[C@@H](C)C(F)(F)F)ccc(C(F)(F)F)n3n2)o1 | 5400 | > 20000 | 25000 | 25000 | solubility [23]: 390 µg/mL (≈ 772 µM); clearance [24]: 3.8 mL/min/kg; Activity [25]: Non-Toxic; fraction unbound [26]: 0.059; solubility [27]: 234 µg/mL (≈ 463 µM); half-life [28]: 6.7 h; half-life [29]: 8.1 h; hepatocyte CLint [30]: 6.3 µL/min/1e6 cells; AUC/dose [31]: 1383 kg·ng·h/mL/mg; bioavailability [32]: 33%; bioavailability [33]: 27%; AUC/dose [34]: 1748 kg·ng·h/mL/mg; clearance [35]: 3.35 mL/min/kg; Therm solubility [36]: 85 µg/mL; Vd [37]: 0.83 L/kg; Vd [38]: 2.2 L/kg; Activity [39]: Non-Toxic |
